Data as given in patent US20260317324A1, “BIFUNCTIONAL COMPOUNDS FOR DEGRADING BRAF VIA UBIQUITIN PROTEOSOME PATHWAY” (Nurix Therapeutics, Inc., priority 2023, published 2026).

Target: T1, BRAF V600E (Homo sapiens, UniProt P15056, V600E)
T1 construct: endogenous C-terminal HiBiT fusion tag on BRAF V600E allele; endogenous in cells; host or cells: A375 clone 1F10 (CRISPR-Cas9 knock-in of the HiBiT tag; parental A375 from ATCC)
Assay: BRAF HiBiT degradation assay, C-terminal HiBiT-tagged BRAF V600E A375 cells (clone 1F10), Nano-Glo HiBiT Lytic assay
Format: cell-based
Details: A375 (BRAF V600E); for DC50: DC50 at 50%: fitted conc. at Y=50; for Dmax: A-375, percentage protein degraded at maximal compound effect relative to DMSO
Description: An A375 cell line expressing a homozygous V600E mutation was purchased from ATCC (Manassas, VA, USA). An A375 clone 1F10 cell line with an endogenous C-terminal HiBiT fusion tag on BRAF V600E allele was generated internally using CRISPR-Cas9 technology and cultured in DMEM, high glucose supplemented with 10% FBS and 1× GlutaMAX. A HCT-116 BRAF−/− cell line overexpressing the C-terminal HiBiT-tagged G466V, G469A, and D594G mutants were generated by lentiviral transduction, externally at Biosettia Inc (San Diego, CA, USA). The stably transfected cells were cultured in RPMI media supplemented with 10% FBS, 1× GlutaMAX, and 0.25 μg/ml puromycin. DMEM medium, RPMI 1640 medium, GlutaMAX, fetal bovine serum (FBS), and puromycin were purchased from Gibco (Grand Island, NY, USA). HCT-116 BRAF−/− cells were purchased from Horizon Discovery (Waterbeach, UK).
The C-terminal HiBiT tagged BRAF A375 cells (monoclonal cell line, cell clone 1F10) were seeded at a density of 10,000 cells/well in 30 μL media (DMEM, high glucose supplemented with 10% FBS and 1× GlutaMAX) in white opaque 384-well plates (Corning #3570) from column 1 to column 23. The wildtype A375 cells were seeded in column 24 at the same cell density in 30 μL media. Cells were incubated at 37° C. with 5% CO2 for 24 h.
Intermediate compound dilution series (5-point, ranging from 5 mM to 0.5 μM, 10-fold dilutions in DMSO) were prepared in a source plate (Beckman Coulter cat. no. 001-16128). Final compound dilution series (11-point, ranging from 1 μM to 0.01 nM, half-log dilutions in DMSO) were stamped into the assay plate (Corning #3570, column 1-11 and 12-22) using the Echo Acoustic Liquid Handler (Beckman Coulter). Each compound was plated in duplicate, and the total volume of compound DMSO solution was 60 nL/well (0.2% final DMSO concentration). DMSO was included in wells A23-L23 and A24-L24. The DMSO-treated HiBiT-tagged samples served as Negative Control (NC) and the DMSO-treated wildtype samples served as Background Control (BC) for the HiBiT assay.
HiBiT signal was measured by a Nano-Glo HiBiT Lytic assay (Promega cat. no. N3050). HiBiT lytic detection reagent (Nano-Glo HiBiT Lytic Buffer with 1:50 Nano-Glo HiBiT Lytic Substrate and 1:100 LgBiT Protein, 40 μL) was added using Bravo. The mixture was incubated at room temperature, in the dark, and with gentle shaking for 10 min. Luminesce units (LU) were read on an EnVision plate reader 2105 (Perkin Elmer).
Percent protein remaining and viability remaining per sample were calculated as follows: […]
% Protein remaining values were plotted as a function of compound concentration. XC50 (DC50) values were determined by fitting curves using the following equation:
For the HiBiT degradation assay, the key parameters reported include: • The dose of compound that produces 50% degradation (DC50 at 50%): • DC50 at 50%: the Fitted X value (Conc.) at Y=50 (response) • Observed Dmax (Obs. Dmax) is the percentage protein degraded at maximal compound effect relative to DMSO-treated control: […]

T1 sequence (P15056 whole entry V600E, the tested form may be a part): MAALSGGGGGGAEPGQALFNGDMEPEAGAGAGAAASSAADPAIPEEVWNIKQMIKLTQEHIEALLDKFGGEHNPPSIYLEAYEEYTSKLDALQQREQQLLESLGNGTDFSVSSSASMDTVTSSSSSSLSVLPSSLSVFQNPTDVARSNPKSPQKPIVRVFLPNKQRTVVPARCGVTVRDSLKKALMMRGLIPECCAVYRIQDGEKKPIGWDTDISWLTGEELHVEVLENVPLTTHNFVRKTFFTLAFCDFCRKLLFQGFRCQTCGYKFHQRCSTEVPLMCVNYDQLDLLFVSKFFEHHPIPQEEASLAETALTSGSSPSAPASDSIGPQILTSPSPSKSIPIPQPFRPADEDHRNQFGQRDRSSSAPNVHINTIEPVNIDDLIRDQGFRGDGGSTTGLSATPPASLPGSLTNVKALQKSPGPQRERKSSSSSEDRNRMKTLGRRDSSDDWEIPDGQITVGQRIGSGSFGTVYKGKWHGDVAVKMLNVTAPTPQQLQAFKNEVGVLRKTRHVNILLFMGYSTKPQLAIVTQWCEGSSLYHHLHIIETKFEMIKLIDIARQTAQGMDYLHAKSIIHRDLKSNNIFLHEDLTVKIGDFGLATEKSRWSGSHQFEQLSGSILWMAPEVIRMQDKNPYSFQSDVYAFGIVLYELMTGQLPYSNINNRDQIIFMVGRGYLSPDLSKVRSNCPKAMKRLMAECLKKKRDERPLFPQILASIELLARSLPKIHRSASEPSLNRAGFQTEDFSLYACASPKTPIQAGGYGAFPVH

SMILES	DC50 [µM]	Dmax [%]
CCCS(=O)(=O)Nc1cccc(-c2cn(-c3ccc(OC4CCN(C(=O)C5CCN(c6ccc(C7CCC(=O)NC7=O)cn6)CC5)CC4)cc3)nc2-c2ccncc2)c1F (racemic) [Compound 5, Rac-N-{3-[1-(4-{[1-(1-{5-[(3R)-2,6-dioxopiperidin-3-yl]pyridin-2-yl}piperidine-4-carbonyl)piperidin-4-yl]oxy}phenyl)-3-(pyridin-4-yl)-1H-pyrazol-4-yl]-2-fluorophenyl}propane-1-sulfonamide]	0.05 to 0.5	30 to 70
CCCS(=O)(=O)Nc1cccc(-c2cn(C3CCN(C(=O)C4CCN(C(=O)C5CCN(c6ccc(C7CCC(=O)NC7=O)cc6)CC5)CC4)CC3)nc2-c2ccncc2)c1F (racemic) [Compound 9, Rac-N-[3-(1-{1-[1-(1-{4-[(3R)-2,6-dioxopiperidin-3-yl]phenyl}piperidine-4-carbonyl)piperidine-4-carbonyl]piperidin-4-yl}-3-(pyridin-4-yl)-1H-pyrazol-4-yl)-2-fluorophenyl]propane-1-sulfonamide]	0.05 to 0.5	> 70
CCCS(=O)(=O)Nc1cccc(-c2cn(-c3ccc(C(=O)N4CCN(C(=O)CC5CCN(c6ccc(C7CCC(=O)NC7=O)cn6)CC5)CC4)cc3)nc2-c2ccncc2)c1F (racemic) [Compound 13, Rac-N-{3-[1-(4-{4-[2-(1-{5-[(3R)-2,6-dioxopiperidin-3-yl]pyridin-2-yl}piperidin-4-yl)acetyl]piperazine-1-carbonyl}phenyl)-3-(pyridin-4-yl)-1H-pyrazol-4-yl]-2-fluorophenyl}propane-1-sulfonamide]	0.01 to 0.05	> 70
CCCS(=O)(=O)Nc1cccc(-c2cn(-c3ccc(C(=O)N4CCN(C(=O)C5CCN(c6ccc(C7CCC(=O)NC7=O)cc6)CC5)CC4)cc3)nc2-c2ccncc2)c1F (racemic) [Compound 14, Rac-N-[3-(1-{4-[4-(1-{4-[(3R)-2,6-dioxopiperidin-3-yl]phenyl}piperidine-4-carbonyl)piperazine-1-carbonyl]phenyl}-3-(pyridin-4-yl)-1H-pyrazol-4-yl)-2-fluorophenyl]propane-1-sulfonamide]	0.05 to 0.5	30 to 70
CCCS(=O)(=O)Nc1cccc(-c2cn(-c3ccc(N4CCN(CC5(C)CCN(c6ccc(C7CCC(=O)NC7=O)cn6)CC5)CC4)cc3)nc2-c2ccncc2)c1F (racemic) [Compound 17, Rac-N-{3-[1-(4-{4-[(1-{5-[(3R)-2,6-dioxopiperidin-3-yl]pyridin-2-yl}-4-methylpiperidin-4-yl)methyl]piperazin-1-yl}phenyl)-3-(pyridin-4-yl)-1H-pyrazol-4-yl]-2-fluorophenyl}propane-1-sulfonamide]	0.05 to 0.5	30 to 70
CCCS(=O)(=O)Nc1cccc(-c2cn(-c3ccc(N4CCN(CC5CCN(c6ccc(C7CCC(=O)NC7=O)cn6)CC5)CC4)cc3)nc2-c2ccncc2)c1F (racemic) [Compound 20, Rac-N-{3-[1-(4-{4-[(1-{5-[(3R)-2,6-dioxopiperidin-3-yl]pyridin-2-yl}piperidin-4-yl)methyl]piperazin-1-yl}phenyl)-3-(pyridin-4-yl)-1H-pyrazol-4-yl]-2-fluorophenyl}propane-1-sulfonamide]	0.01 to 0.05	> 70
CCCS(=O)(=O)Nc1cccc(-c2cn(-c3ccc(N4CCN(C(=O)C5CCN(c6ccc(C7CCC(=O)NC7=O)cc6)CC5)CC4)cc3)nc2-c2ccncc2)c1F (racemic) [Compound 26, Rac-N-[3-(1-{4-[4-(1-{4-[(3R)-2,6-dioxopiperidin-3-yl]phenyl}piperidine-4-carbonyl)piperazin-1-yl]phenyl}-3-(pyridin-4-yl)-1H-pyrazol-4-yl)-2-fluorophenyl]propane-1-sulfonamide]	0.05 to 0.5	30 to 70
CCCS(=O)(=O)Nc1cccc(-c2nc(C)sc2-c2ccnc(Nc3ccc(N4CCN(CC5(F)CCN(c6ccc(C7CCC(=O)NC7=O)cc6)CC5)CC4)cc3)n2)c1F (racemic) [Compound 31, Rac-N-[3-(5-{2-[(4-{4-[(1-{4-[(3R)-2,6-dioxopiperidin-3-yl]phenyl}-4-fluoropiperidin-4-yl)methyl]piperazin-1-yl}phenyl)amino]pyrimidin-4-yl}-2-methyl-1,3-thiazol-4-yl)-2-fluorophenyl]propane-1-sulfonamide]	0.01 to 0.05	> 70

The remaining lines, values ahead:

DC50 [µM]	Dmax [%]	SMILES
< 0.01	> 70	CCCS(=O)(=O)Nc1cccc(-c2nc(C)sc2-c2ccnc(Nc3ccc(N4CCN(CC5(C)CCN(c6ccc(C7CCC(=O)NC7=O)cn6)CC5)CC4)cc3)n2)c1F (racemic) [Compound 32, Rac-N-[3-(5-{2-[(4-{4-[(1-{5-[(3R)-2,6-dioxopiperidin-3-yl]pyridin-2-yl}-4-methylpiperidin-4-yl)methyl]piperazin-1-yl}phenyl)amino]pyrimidin-4-yl}-2-methyl-1,3-thiazol-4-yl)-2-fluorophenyl]propane-1-sulfonamide]
0.01 to 0.05	> 70	CCN(C)S(=O)(=O)Nc1cccc(-c2nc(C)sc2-c2ccnc(Nc3ccc(N4CCN(CC5(C)CCN(c6ccc(C7CCC(=O)NC7=O)cn6)CC5)CC4)cn3)n2)c1F (racemic) [Compound 34, Rac-(3S)-3-{6-[4-({4-[6-({4-[4-(3-{[ethyl(methyl)sulfamoyl]amino}-2-fluorophenyl)-2-methyl-1,3-thiazol-5-yl]pyrimidin-2-yl}amino)pyridin-3-yl]piperazin-1-yl}methyl)-4-methylpiperidin-1-yl]pyridin-3-yl}piperidine-2,6-dione]
0.01 to 0.05	30 to 70	CCCS(=O)(=O)Nc1cccc(-c2nc(C(C)(C)C)sc2-c2ccnc(Nc3ccc(C4CCN(C(=O)C5CCN(c6ccc(C7CCC(=O)NC7=O)cc6)CC5)CC4)cc3)n2)c1F (racemic) [Compound 37, Rac-N-(3-{2-tert-butyl-5-[2-({4-[1-(1-{4-[(3R)-2,6-dioxopiperidin-3-yl]phenyl}piperidine-4-carbonyl)piperidin-4-yl]phenyl}amino)pyrimidin-4-yl]-1,3-thiazol-4-yl}-2-fluorophenyl)propane-1-sulfonamide]
< 0.01	> 70	CCN(C)S(=O)(=O)Nc1cccc(-c2nc(C)sc2-c2ccnc(Nc3ccc(N4CCN(C(=O)CC5CCN(c6ccc(C7CCC(=O)NC7=O)cn6)CC5)CC4)cn3)n2)c1F (racemic) [Compound 39, Rac-(3R)-3-{6-[4-(2-{4-[6-({4-[4-(3-{[ethyl(methyl)sulfamoyl]amino}-2-fluorophenyl)-2-methyl-1,3-thiazol-5-yl]pyrimidin-2-yl}amino)pyridin-3-yl]piperazin-1-yl}-2-oxoethyl)piperidin-1-yl]pyridin-3-yl}piperidine-2,6-dione]
0.01 to 0.05	> 70	CCCS(=O)(=O)Nc1cccc(-c2nc(C(C)(C)C)sc2-c2ccnc(Nc3ccc(N4CCN(C(=O)[C@H]5CC[C@H](Oc6ccc(C7CCC(=O)NC7=O)cn6)CC5)CC4)c(F)c3)n2)c1F (mixture of isomers) [Compound 50, N-[3-(2-tert-butyl-5-{2-[(3-fluoro-4-{4-[(1r,4r)-4-({5-[(3RS)-2,6-dioxopiperidin-3-yl]pyridin-2-yl}oxy)cyclohexanecarbonyl]piperazin-1-yl}phenyl)amino]pyrimidin-4-yl}-1,3-thiazol-4-yl)-2-fluorophenyl]propane-1-sulfonamide]
< 0.01	> 70	CCN(C)S(=O)(=O)Nc1cccc(-c2nc(C(C)(C)C)sc2-c2ccnc(Nc3ccc(N4CCN(C(=O)C5CN(c6ccc(C7CCC(=O)NC7=O)cn6)C5)CC4)cn3)n2)c1F (racemic) [Compound 53, Rac-(3S)-3-[6-(3-{4-[6-({4-[2-tert-butyl-4-(3-{[ethyl(methyl)sulfamoyl]amino}-2-fluorophenyl)-1,3-thiazol-5-yl]pyrimidin-2-yl}amino)pyridin-3-yl]piperazine-1-carbonyl}azetidin-1-yl)pyridin-3-yl]piperidine-2,6-dione]
